These results are taken from patent US20060025566A1, “Macrocyclic modulators of the ghrelin receptor” (Tranzyme Pharma Inc., priority 2003, published 2006).

Like-named read-outs stand apart in the source and are kept apart here.

The test addresses T1, human growth hormone secretagogue receptor (hGHS-R1a) (Homo sapiens, UniProt Q92847).
T1 construct: purchased PerkinElmer BioSignal #RBHGHSM, lot#1887; host or cells: HEK-293, stably transfected (membranes)
As to the kind of experiment: Competitive radioligand binding assay (ghrelin receptor), [125I]-ghrelin displacement on GHS-R/HEK 293 membranes. On the procedure:
The competitive binding assay at the human growth hormone secretagogue receptor (hGHS-R1a) was carried out analogously to assays described in the literature.
Multiscreen Harvest plates-GF/C (Millipore, #MAHFC 1H60) • 4. […] Bottom seal (Millipore, #MATAH0P00) • 7. […] Binding Buffer: 25 mM Hepes (pH 7.4), 1 mM CaCl2, 5 mM MgCl2, 2.5 mM EDTA, 0.4% BSA Assay Volumes
Competition experiments were performed in a 300 μl filtration assay format. • 1. 220 μL of membranes diluted in binding buffer • 2. 40 μL of compound diluted in binding buffer • 3. […] Compound Handling
Compounds were provided frozen on dry ice at a stock concentration of 10 mM diluted in 100% DMSO and stored at −80° C. until the day of testing. On the test day, compounds were allowed to thaw at rt O/N and then diluted in assay buffer according to the desired test concentrations.
Plates were sealed with TopSeal-A, vortexed gently and incubated at rt for 30 min. The reaction was arrested by filtering samples through Multiscreen Harvest plates (pre-soaked in 0.5% polyethyleneimine) using a Tomtec Harvester, washed 9 times with 500 μL of cold 50 mM Tris-HCl (pH 7.4, 4° C.), and then plates were air-dried in a fumehood for 30 min. A bottom seal was applied to the plates prior to the addition of 25 μL of MicroScint-0 to each well. […] Results were expressed as counts per minute (cpm).
Data were analyzed by GraphPad Prism (GraphPad Software, San Diego, Calif.) using a variable slope non-linear regression analysis.
• 1. […] Key Aspects of Method • 1. […] Results

[1] abbreviates: binding activity at the human ghrelin receptor, [125I]-ghrelin displacement, read-out: Ki.
Setting [2] is: Table 3E, human ghrelin receptor, read-out: Ki.
[3] abbreviates: binding activity at the human ghrelin receptor, [125I]-ghrelin competition, GHS-R/HEK 293 membranes, read-out: Ki.
Where [4] appears, read: [125I]-ghrelin competition, GHS-R/HEK 293 membranes, Table 3A, read-out: Binding Activity at the Human Ghrelin Receptor.
[5] abbreviates: second table titled 3C (compounds 435-449), human ghrelin receptor, read-out: Ki.

T1 sequence (Q92847 whole entry): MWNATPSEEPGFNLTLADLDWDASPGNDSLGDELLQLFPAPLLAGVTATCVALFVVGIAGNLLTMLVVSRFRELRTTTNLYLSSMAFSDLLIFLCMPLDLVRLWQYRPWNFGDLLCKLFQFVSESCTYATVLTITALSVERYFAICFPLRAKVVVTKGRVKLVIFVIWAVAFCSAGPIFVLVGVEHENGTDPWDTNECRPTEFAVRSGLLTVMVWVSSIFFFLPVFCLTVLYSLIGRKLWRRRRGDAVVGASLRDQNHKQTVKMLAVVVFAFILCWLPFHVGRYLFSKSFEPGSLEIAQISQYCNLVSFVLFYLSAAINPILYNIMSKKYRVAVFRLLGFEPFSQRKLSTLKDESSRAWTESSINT

For the compound `C[C@@H]1C(=O)N[C@H](Cc2ccccc2F)C(=O)NCCCc2ccccc2OCCN[C@@H](C2CC2)C(=O)N1C` [compound 312], the Ki under setting [1] lay within 0.1 to 10 nM. Regarding `CCC[C@@H]1NCCOc2ccccc2CCCNC(=O)[C@H](Cc2ccccc2)NC(=O)[C@H]2CCCN2C1=O`, the Ki under setting [2] fell in the range of 1000 to 10000 nM. On the same count and under the same terms, next, `CCC(C)[C@@H]1NCCOc2ccccc2CCCNC(=O)[C@@H](Cc2ccccc2)N2CC[C@H](NC1=O)C2=O` (some centres unmarked): more than 10000 nM.

Consider `CC(C)C[C@@H]1NCCOc2ccccc2CCCNC(=O)[C@H](CCc2ccccc2)NC(=O)C2(CCCC2)NC1=O` [compound 90], for which the Ki under setting [3] is 1000 to 10000 nM. For the compound `CC(C)C1NCCOc2ccccc2C=CCNC(=O)C(Cc2ccccc2)NC(=O)C2(CCNCC2)NC1=O` (stereo in doubt) [compound 211], the Ki under setting [4] is more than 1000 nM.

On to `C[C@@H]1C(=O)N[C@H](Cc2ccc(C#N)cc2)C(=O)NCCCc2ccccc2OCCN[C@@H](C2CC2)C(=O)N1C` [compound 321], for which the Ki under setting [1] was in the range of 10 to 100 nM.

As for `CCC(C)C1NCCOc2ccccc2/C=C/CNC(=O)C(CO)NC(=O)C2(CCCC2)NC1=O` (single isomer, unassigned) [442a], under setting [5], the Ki was more than 10000 nM. With `CCC[C@@H]1NCCOc2ccccc2CCCNC(=O)[C@H](Cc2ccccc2)NC(=O)[C@@H]2CCCN2C1=O`, the Ki under setting [2] was 1000 to 10000 nM. Consider `CCCC1NCCC#CCCNC(=O)C(Cc2ccccc2)NC(=O)CN(C)C1=O` (centres unmarked) [compound 82], for which, under setting [3], the Ki is more than 10000 nM. On the same count and under the same terms, next, `COc1ccc(CC2NCCOc3ccccc3C=CCNC(=O)C(Cc3ccccc3)NC(=O)C3(CCCC3)NC2=O)cc1` (centres unmarked) [compound 127]: 100 to 1000 nM. For `CC[C@@H]1NC(=O)C2(CCCC2)NC(=O)[C@H](CC(C)C)NCCOc2ccccc2C=CCNC1=O` (stereo in doubt) [compound 165], the Ki under setting [4] was more than 10000 nM.

On to `CCC(C)C1NCCOc2ccccc2CCCNC(=O)C(Cc2ccccc2)NC(=O)C(C(C)CC)N(C)C1=O` (centres unmarked) [150a], for which, under setting [3], the Ki was in the range of 100 to 1000 nM. The same measure, in the same setting: next, `CCCC1NCCOCCNC(=O)C(Cc2ccccc2)NC(=O)CN(C)C1=O` (centres unmarked) [compound 81]: more than 10000 nM. For the compound `CCC(C)C1NCCOc2ccccc2CCCNC(=O)C(Cc2ccccc2)NC(=O)C(CC)N(C)C1=O` (centres unmarked) [compound 212], under setting [4], the Ki lay in the range of 100 to 1000 nM. Same read-out and setting: the figure for `CCC(C)C1NC(=O)C2(CCCC2)NC(=O)C(CC(C)C)NCCOc2ccccc2C=CCNC1=O` (centres unmarked) [compound 167] is more than 10000 nM.

Turning to `O=C1NC2(CCCC2)C(=O)N[C@@H](Cc2ccccc2)C(=O)NCC=Cc2ccccc2OCCN[C@H]1Cc1cccc(Cl)c1` (stereo in doubt) [compound 123], the Ki under setting [3] was 100 to 1000 nM. With `CC[C@H](C)[C@@H]1NCCOc2ccccc2CCCNC(=O)[C@@H](Cc2ccncc2)NC(=O)[C@@H](C)N(C)C1=O` [compound 171], under setting [4], the Ki was in the range of 10 to 100 nM. In the case of `CC[C@H](C)[C@@H]1NCCOc2ccccc2CCCNC(=O)[C@@H](Cc2ccccc2)NC(=O)[C@@H](CO)NC1=O` [compound 151], under setting [3], the Ki is more than 1000 nM. On the same count and under the same terms, the figure for `O=C1NC2(CCCC2)C(=O)N[C@@H](Cc2ccccc2)C(=O)NCC=Cc2ccccc2OCCN[C@H]1Cc1ccncc1` (stereo in doubt) [compound 133] is more than 1000 nM. Consider `C[C@@H]1C(=O)N[C@H](Cc2ccccc2)C(=O)NCCCc2ccccc2OCCN[C@@H]([C@@H](C)O)C(=O)N1C` [compound 119], for which the Ki under setting [3] was 100 to 1000 nM. In the case of `O=C1NC2(CCCC2)C(=O)N[C@@H](Cc2ccccc2)C(=O)NCCCc2ccccc2OCCN[C@H]1CO` [compound 105], under setting [3], the Ki was 100 to 1000 nM. Still for that read-out and setting: the figure for `CC(C)CC1NCCOc2ccccc2C=CCNC(=O)C(CC(C)C)NC(=O)C2(CCCC2)NC1=O` (centres unmarked) [compound 47] is more than 10000 nM. `COC[C@@H]1NCCOc2ccccc2CCCNC(=O)[C@@H](Cc2ccc(F)cc2)NC(=O)[C@@H](C)N(C)C1=O` [compound 336]: under setting [1], the Ki lay in the range of 100 to 1000 nM. The same measure, in the same setting: the figure for `CSCC[C@@H]1NCCOc2ccccc2CCCNC(=O)[C@@H](Cc2ccc(F)cc2)NC(=O)[C@@H](C)N(C)C1=O` [compound 340] is 10 to 100 nM. Regarding `CO[C@H](C)[C@@H]1NCCOc2ccccc2CCCNC(=O)[C@@H](Cc2ccccc2)NC(=O)[C@@H](C)N(C)C1=O` [compound 120], under setting [3], the Ki was in the range of 10 to 100 nM. With `CCC[C@@H]1NCCOc2ccccc2CCCNC(=O)[C@@H](Cc2ccccc2)NC(=O)CNC1=O` [compound 61], under setting [3], the Ki fell in the range of 100 to 1000 nM. On to `CC1C(=O)NC(Cc2ccc(F)cc2)C(=O)NCCOCCOCCNC(C2CC2)C(=O)N1C` (single isomer, unassigned) [446a], for which, under setting [5], the Ki was in the range of 1000 to 10000 nM. Take `CCC(C)C1NCCOc2ccccc2CCCNC(=O)C(Cc2ccccc2)NC(=O)C(CC(C)C)N(C)C1=O` (centres unmarked) [compound 147]: the Ki under setting [3] was more than 1000 nM. Turning to `CC(C)C[C@@H]1NCCOc2ccccc2CCCNC(=O)[C@@H](Cc2ccccc2)NC(=O)[C@@H](C)N(C)C1=O` [compound 118], the Ki under setting [3] lay in the range of 10 to 100 nM.

Regarding `CCCC1NCc2csc(n2)CNC(=O)C(Cc2ccccc2)NC(=O)CN(C)C1=O` (centres unmarked) [compound 86], under setting [3], the Ki is more than 10000 nM.

For `C[C@@H]1C(=O)N[C@H](Cc2ccc(Cl)cc2)C(=O)NCC=Cc2ccccc2OCCN[C@@H](C2CC2)C(=O)N1C` (stereo in doubt) [compound 308], the Ki under setting [1] fell in the range of 0.1 to 10 nM. Take `CCC(C)C1NCCOc2ccccc2CCCNC(=O)C(Cc2ccccc2)NC(=O)C(C(C)C)N(C)C1=O` (single isomer, unassigned) [145a]: under setting [3], the Ki lay in the range of 100 to 1000 nM. On to `CC1(C)NCCOc2ccccc2C=CCNC(=O)[C@H](Cc2cccc(Cl)c2)NC(=O)C2(CCCC2)NC1=O` (stereo in doubt) [compound 349], for which the Ki (Table 3C (compounds 18, 334-397), human ghrelin receptor, read-out: Ki) is 10 to 100 nM.

For the compound `C[C@@H]1C(=O)N[C@H](Cc2ccc(Br)cc2)C(=O)NCCCc2ccccc2OCCN[C@@H](C2CC2)C(=O)N1C` [compound 319], the Ki under setting [1] lay within 0.1 to 10 nM. Consider `CCCC1NCc2cccc(c2)CNC(=O)C(Cc2ccccc2)NC(=O)CN(C)C1=O` (centres unmarked) [compound 84], for which the Ki under setting [3] is 1000 to 10000 nM. As to `CCC1NCCOc2ccccc2/C=C/CNC(=O)C(Cc2ccccc2)NC(=O)C2(CCCC2)NC1=O` (single isomer, unassigned) [136b], the Ki under setting [3] was in the range of 100 to 1000 nM.

Take `CC[C@H]1NC(=O)[C@@H](C)N(C)C(=O)[C@H]([C@@H](C)CC)NCCOc2ccccc2CCCNC1=O` [compound 205]: under setting [4], the Ki is more than 10000 nM.

In the case of `CCC(C)C1NCCOc2ccccc2C=CCNC(=O)C(Cc2ccc(C(=O)O)cc2)NC(=O)C2(CCCC2)NC1=O` (centres unmarked) [compound 441], the Ki under setting [5] is 1000 to 10000 nM. On to `CC(C)C[C@H]1C(=O)NC2(CCCC2)C(=O)N[C@@H](Cc2ccccc2)C(=O)NCC=Cc2ccccc2OCCN1C` (stereo in doubt) [compound 203], for which the Ki under setting [4] lay in the range of 1000 to 10000 nM. For `CCC[C@@H]1NCCOc2ccccc2CCCNC(=O)[C@@H](Cc2ccccc2)NC(=O)[C@H](CCCCN)NC1=O` [compound 68], the Ki under setting [3] was 1000 to 10000 nM. Same read-out and setting: next, `CC(C)CC1NCc2ccc(cc2)CCNC(=O)C(Cc2ccccc2)NC(=O)C2(CCCC2)NC1=O` (centres unmarked) [compound 115]: more than 10000 nM.

As for `CCCC1NC(=O)C(C)N(C)C(=O)C(C(C)CC)NCCOc2ccccc2CCCNC1=O` (centres unmarked) [compound 173], under setting [4], the Ki lay within 100 to 1000 nM. As for `C[C@@H]1NCCOc2ccccc2CCCNC(=O)[C@@H](Cc2ccccc2)NC(=O)CN(C)C1=O` [compound 72], the Ki under setting [3] fell in the range of 1000 to 10000 nM.

With `CCC(C)C1NCCOc2ccccc2C=CCNC(=O)C(Cc2cccc(OC)c2)NC(=O)C2(CCCC2)NC1=O` (centres unmarked) [compound 328], the Ki under setting [1] is 10 to 100 nM. Same read-out and setting: next, `C[C@@H]1C(=O)N[C@H](Cc2ccc(F)cc2)C(=O)NCCCc2ccccc2OCCN[C@@H](C2CC2)C(=O)N1C` [compound 309]: 0.1 to 10 nM; `CC1C(=O)NC(Cc2ccc(F)cc2)C(=O)NCC=Cc2ccccc2OCCNC(C2CC2)C(=O)N1C` (centres unmarked) [compound 401]: 0.1 to 10 nM. In the case of `O=C1NC2(CCCC2)C(=O)NC(Cc2ccccc2)C(=O)NCC=Cc2ccccc2OCCNC1Cc1ccc(F)cc1` (centres unmarked) [compound 125], the Ki under setting [3] is more than 10000 nM. Regarding `CCC(C)C1NCCOc2ccccc2C=CCNC(=O)C(COCc2ccccc2)NC(=O)C2(CCCC2)NC1=O` (centres unmarked) [compound 347], the Ki under setting [1] lay within 100 to 1000 nM. With `CCC(C)C1NCCOc2ccccc2CCCNC(=O)C(Cc2ccccc2)NC(=O)C(C(C)CC)N(C)C1=O` (centres unmarked) [compound 149], the Ki under setting [3] lay in the range of 1000 to 10000 nM. Same read-out and setting: the figure for `CN1CC(=O)N[C@H](Cc2ccccc2)C(=O)NCCCc2ccccc2OCCN[C@@H](CO)C1=O` [compound 76] is more than 10000 nM; for `CC(C)C[C@@H]1NCCOc2ccccc2CCCNC(=O)[C@H](CCC(=O)O)NC(=O)C2(CCCC2)NC1=O` [compound 92] it is more than 10000 nM; for `CC(C)C[C@@H]1NCCOc2ccccc2CCCNC(=O)[C@H](Cc2ccccc2)NC(=O)[C@@H](C)NC1=O` [compound 94] it is 1000 to 10000 nM. With `CCC[C@@H]1NCCOc2ccccc2CCCNC(=O)[C@@H](Cc2ccccc2)NC(=O)[C@H]2CCCN2C1=O`, the Ki under setting [2] fell in the range of 100 to 1000 nM.
